“Also recorded” adds a separate entry of the source.
Legend:
[1] = test system: human umbilical vein endothelial cells; experiment: CaI-stimulated endothelial NO release in HUVECs from MA and NHW donors after 24 h pre-treatment (nanosensor array); format: cell-based; settings: for enhancement of NO release: pretreatment 24 hr, 1.0 μM, CaI 1.0 μM stimulus
Experimental: (§1) Endothelial function in cells from normotensive, age-matched Mexican American (MA) and Non-Hispanic White (NHW) donors, as well as the effects of treatment with nebivolol was also determined. Endothelial NO and peroxynitrite (ONOO^−) release was measured simultaneously in human umbilical vein endothelial cells from age-matched MA and NHW donors using a nanosensor array. The effects of nebivolol on NO and ONOO^− production was evaluated following pre-treatment (24 h) using calcium ionophore (CaI) as a receptor-independent stimulus. Levels of eNOS were measured by Western blot analysis. Drug-membrane interactions were determined by small angle x-ray diffraction analysis.

[2] = test system: human umbilical vein endothelial cells (HUVECs); experiment: Endothelial-dependent NO release from HUVECs of non-Hispanic white and Mexican American donors, measured with electrochemical nanosensors; format: cell-based; settings: for increase in NO release (NO bioavailability): 24 h pretreatment with nebivolol at 1.0 μM (FIG. 4)
Experimental: The effects of nebivolol and atenolol on endothelial-dependent NO release were tested in human umbilical vein endothelial cells (HUVECs). Human umbilical vein endothelial cells were isolated into primary cultures from non-Hispanic white and Mexican American female donors by Clonetics (San Diego, Calif.) and purchased as proliferating cells. All cell culture donors were healthy, with no pregnancy or prenatal complications. None of the donors took any drugs regularly and all were nonsmokers and consumed regular caloric/content diet. The identification of race was defined by self-report. The cultured cells were incubated in 95% air/5% CO2 at 37° C. and passage by an enzymatic (trypsin) procedure. […] Before the experiments, the cells (from second or third passage) were rinsed twice with Tyrode-HEPES buffer with 1.8 mmol/L CaCl2. Drugs were obtained from Mylan Laboratories (Morgantown, W. Va.). NO measurement was carried out with electrochemical nanosensors The design was based on previously developed and well-characterized chemically modified carbon-fiber technology ([…], Nature 358, 676-678, 1992; […]. Anal. Chem. 69, 454-462, 1997). Each of the nanosensors was made by depositing a sensing material on the tip of a carbon fiber (length 4-5 μm, diameter 0.2-0.5 μm). The fibers were sealed with nonconductive epoxy and electrically connected to copper wires with conductive silver epoxy. […] The NO nanosensors (diameter 1-2 μm) with a platinum wire (0.1 mm) counter electrode and saturated calomel reference electrode (SCE) were applied. Differential pulse voltammetry (DPV) and amperometry were performed with a computer-based Gamry VFP600 multichannel potentiostat. DPV was used to measure the basal NO concentrations, and amperometry was used to measure changes in NO concentrations from its basal level with time. The DPV current at the peak potential characteristic for NO oxidation (0.65 V) […] was directly proportional to the local concentrations of these compounds in the immediate vicinity of the sensor. Linear calibration curves (current vs. concentration) were constructed for each sensor from 10 nmol/L to 3 μmol/L before and after measurements with aliquots of NO standard solutions, respectively. The detection limit of the sensors was 10^-9 mol/L. The quantification of each analyte (concentration in nmol/L) was performed using a maximum current from amperograms and standard calibration curves. A reproducibility of measurements with nanosensors is relatively high (between 5-12%). […] The sensors were slowly raised 4±1 μm from the surface of a single endothelial cell. The HUVEC preparation is stable over the course of these experiments with the cells remaining viable in culture for >24 hours. Under non-stimulating conditions, basal levels of NO release are very low (<30 nM). […]

[3] = test system: arteries isolated from control Wistar-Kyoto (WKY) rats; experiment: NO release from arteries isolated from control Wistar-Kyoto (WKY) rats; parameters: species or system rat; settings: for amount of NO released: WKY rat arteries, concentration of 10 μM (maximum NO release)
Experimental: In one aspect of the present invention, a composition comprising nebivolol is administered to a person of Hispanic descent, particularly a Mexican American, wherein nebivolol is administered in a mixture containing a greater proportion (enantiomeric excess) of the l-steroisomer of nebivolol. In another embodiment, all or substantially all of the mixture comprises the l-stereoisomer of nebivolol. NO release levels from arteries isolated from control Wistar-Kyoto (WKY) rats following treatment with nebivolol racemate, l-nebivolol or d-nebivolol vary. […] At this concentration, the amount of NO released was 340±30 nM, 284±24 nM, and 180±21 nM for l-nebivolol, nebivolol racemate and d-nebivolol, respectively. These findings confirm that nebivolol can stimulate NO release in the intact artery in a stereoselective manner. See also, Xhonneux R, Wouters L, Reneman R S, et al. The l-enantiomer of nebivolol potentiates the blood pressure lowering effect of the d-enantiomer. Eur. J. Pharmacol. 1990; 181:261-265.

eNOS = eNOS levels by Western blot analysis in endothelium; format: cell-based, human; settings: MA endothelium, nebivolol treatment
Experimental: as §1

aortic endothelial cells = experiment: STZ-induced diabetes: CaI-induced endothelial-dependent NO release from aortic endothelial cells after nebivolol treatment of animals; format: in vivo; settings: nebivolol treatment prior to sacrifice at 13 weeks, p=0.1273
From the text: FIG. 6 depicts the effects of STZ-induced diabetes on the ratio of CaI-induced NO/ONOO release from aortic endothelial cells in the absence and presence of nebivolol treatment prior to sacrifice of animals at 13 weeks. Values are reported as mean±SD. *p<0.0001 versus control and ^†p<0.001 versus STZ treatment (Student t-test). FIG. 7 depicts the effects of STZ-induced diabetes on CaI-induced endothelial-dependent NO release from aortic endothelial cells in the absence and presence of nebivolol treatment prior to sacrifice of animals at 13 weeks. Values are reported as mean±SD. *p<0.0001 versus control and ^†p<0.001 versus STZ treatment (Student t-test).

[4] = test system: human umbilical vein endothelial cells; experiment: CaI-stimulated peroxynitrite (ONOO−) release in HUVECs from MA and NHW donors after 24 h pre-treatment (nanosensor array); format: cell-based; settings: for reduction of ONOO− levels: nebivolol pretreatment
Experimental: as §1

CC(C)NCC(O)COc1ccc(CC(N)=O)cc1 (stereo not drawn) [atenolol]
effects on NO release, ONOO− levels, NO/ONOO− ratio and eNOS levels ([1]; MA and NHW HUVECs): not observed
stimulation of NO release ([2]; either racial group, identical conditions (24 h pre-incubation at 1.0 or 5.0 μM, FIGS. 4 and 5)): failed to stimulate any significant amount of NO release; also recorded: did not have any effect

O[C@H](CNC[C@@H](O)[C@H]1CCc2cc(F)ccc2O1)[C@@H]1CCc2cc(F)ccc2O1 [d-nebivolol]
ability to stimulate NO release (order of activity) ([3]; WKY arterial vessels): weakest stimulant of NO release
amount of NO released [3]: 180 ± 21 nM

OC(CNCC(O)C1CCc2cc(F)ccc2O1)C1CCc2cc(F)ccc2O1 (racemic) [nebivolol, α, α′-[iminobismethylene]bis[6-fluoro-3,4-dihydro-2H-1-benzopyran-2-methanol]]
amount of NO released [3]: 284 ± 24 nM
enhancement of NO release ([1]; MA cells): 57%
increase of ratio of NO to ONOO− (indicator of eNOS coupling) ([1]; MA, following nebivolol treatment): more than 5 fold
enhancement of NO release ([1]; NHW cells): 20%
increase of eNOS levels (eNOS): two-fold
CaI-induced endothelial-dependent NO release versus non-diabetic control animals (aortic endothelial cells): not a statistically significant difference as compared to non-diabetic control animals
ONOO− level after treatment ([4]; MA endothelium, from 746±12 nM without treatment): 195 ± 10 nM
reduction of ONOO− levels ([4]; MA endothelium): 75%
ONOO− level after treatment ([4]; NHW endothelium, from 416±7 nM without treatment): 191 ± 13 nM
reduction of ONOO− levels ([4]; NHW endothelium): 50%
increase in NO release (NO bioavailability) ([2]; HUVECs from Mexican American donors): 138 ± 2 nM
increase in NO release (NO bioavailability) ([2]; HUVECs from white donors): 68 ± 3 nM
increase in NO bioavailability, Mexican American samples relative to white donors ([2]; nebivolol at 1.0 μM, 24 h pretreatment): two-fold greater

O[C@@H](CNC[C@H](O)[C@H]1CCc2cc(F)ccc2O1)[C@@H]1CCc2cc(F)ccc2O1 [l-nebivolol]
amount of NO released [3]: 340 ± 30 nM

— patent US20090030071A1, “Treatment of Cardiovascular Disease in Mexican Americans Using Nebivolol” (priority 2007, published 2009)
